The source of these data is ChEMBL document CHEMBL1201862, “PubChem BioAssay data set” (2004).

Common to all, as to experiment: inhibition of tumour cell growth, NCI panel, 48 h
Assay [1] concerns SR.
In assay [2] the test system is UACC-257.
Assay [3] concerns RPMI-8226.
The subject of assay [4] is HOP-62.
Assay [5] has as its system NCI-H226.
The subject of assay [6] is KM12.
For assay [7], the system named is SF-539.
Assay [8] relates to OVCAR-8.
The test system of assay [9] is UO-31.
For assay [10], the system named is U-251.
The test system of assay [11] is NCI/ADR-RES.
In assay [12] the test system is OVCAR-3.
In assay [13] the test system is HCT-15.
Assay [14] relates to OVCAR-4.
The subject of assay [15] is UACC-62.
For assay [16], the system named is PC-3.
Assay [17] concerns A549.
Assay [18] relates to M14.
Assay [19] deals with SK-MEL-2.
For assay [20], the system named is SN12C.

SMILES strings stand for the structures.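 A five-concentration, 48-hour dose response in 96-well plates underlies each endpoint, interpolated linearly between surrounding concentrations. GI50 = concentration required for 50% inhibition of growth.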 Calls of active or inactive are those of the source. No stated cut-off is given here; in the data, active = GI50 up to about 1.1 µM and inactive = higher.

As for `Cc1ccc2c(c1)C(=O)/C(=N/Nc1ccc(Cl)cc1)CCO2`, the GI50 in assay [1] was 44.8 µM (inactive); in assay [2], > 100 µM (inactive); in assay [3], 36.3 µM (inactive); in [4] it was > 100 µM (inactive); in [5], > 100 µM (inactive); in assay [6], 75 µM (inactive). For the same molecule, the GI50 in [7], in [8], in assay [9], in assay [10], in assay [11] and in assay [12] was > 100 µM (inactive) in each case. The GI50 was 60 µM in assay [13]; 80.4 µM (inactive) in assay [14]; 50.1 µM (inactive) in assay [15]; 54.5 µM (inactive) in [16]; 94.6 µM (inactive) in assay [17]; 44 µM (inactive) in assay [18]. Moreover, the GI50 in [19] was 21.2 µM (inactive); in assay [20] it was > 100 µM (inactive).

For `CCCCCCCCCCCCCC(=O)O.O=CC(O)C(O)C(OC1OC(CO)C(O)C(O)C1O)C(O)CO` (stereo not given), the GI50 is 1 µM (active) in assay [1]; > 100 µM (inactive) in assay [2]; 19.8 µM (inactive) in assay [3]; 44.8 µM (inactive) in [4]; 30.5 µM (inactive) in [5]; 23.2 µM (inactive) in [6]. The GI50 in assay [7] was > 100 µM (inactive); in assay [8], > 100 µM (inactive); in assay [9], > 100 µM (inactive); in assay [10], 35 µM (inactive); in assay [11], > 100 µM (inactive); in assay [12] it was > 100 µM (inactive). Besides, the GI50 in assay [13] was 22.9 µM; in [14], > 100 µM (inactive); in assay [15], 74.6 µM (inactive); in [16], 73.5 µM (inactive); in assay [17] it was 80.2 µM (inactive); in assay [18], > 100 µM (inactive). In addition, the GI50 was > 100 µM (inactive) in assay [19] and 80.4 µM (inactive) in assay [20].

Regarding `Cc1cc(C(F)(F)F)cc(-n2nc(NS(=O)(=O)c3cc(C)c(Cl)cc3S)nc2N)n1`, the GI50 in assay [1] is 23.4 µM (inactive); in assay [2], > 100 µM (inactive); in assay [3], 65.8 µM (inactive); in assay [4], 23.3 µM (inactive); in assay [5], 40.3 µM (inactive); in assay [6], 42.9 µM (inactive). For the same molecule, the GI50 in [7] is > 10 µM (inactive); in [8], 45.4 µM (inactive); in [10] it was 42.2 µM (inactive); in assay [11] it was 30.8 µM (inactive); in assay [12] it was 51.3 µM (inactive); in assay [13], 39.5 µM. Further, the GI50 is > 95.3 µM (inactive) in assay [14]; 29.5 µM (inactive) in assay [15]; 47.4 µM (inactive) in [16]; 36.6 µM (inactive) in assay [17]; 54.1 µM (inactive) in assay [18]; 26.2 µM (inactive) in [19]. The GI50 in assay [20] was 35.5 µM (inactive).

As to `COP(=O)(OC)C(C)(C)NC(=O)NC(F)(F)F`, the GI50 in assay [1] was > 100 µM (inactive); in assay [2], > 100 µM (inactive); in [3], > 100 µM (inactive); in assay [4], > 100 µM (inactive); in assay [5], 22.2 µM (inactive); in assay [6], > 100 µM (inactive). The GI50 in assay [7], in assay [8], in assay [9], in assay [10], in assay [11] and in assay [12] was > 100 µM (inactive) throughout. Also, the GI50 in [13] was over 100 µM; in assay [14] it was > 100 µM (inactive); in assay [15] it was > 100 µM (inactive); in assay [16], > 100 µM (inactive); in assay [17], > 100 µM (inactive); in assay [18], 0.0401 µM (active). The GI50 in [19] and in assay [20] was > 100 µM (inactive) in each case.

As to `O=C1NC(N2CCCCC2)=N/C1=C\c1ccccc1O`, the GI50 is > 10 µM (inactive) in [1]; > 100 µM (inactive) in assay [2]; > 100 µM (inactive) in assay [3]; > 100 µM (inactive) in [4]; 36.6 µM (inactive) in assay [5]; > 100 µM (inactive) in assay [6]. For the same molecule, the GI50 in [7] is 37.1 µM (inactive); in [8], > 100 µM (inactive); in assay [9], > 100 µM (inactive); in [10], > 100 µM (inactive); in assay [11], > 100 µM (inactive); in assay [12], > 100 µM (inactive). Besides, the GI50 in [13] is over 100 µM; in assay [14], 13 µM (inactive); in assay [16], > 100 µM (inactive); in assay [17], > 100 µM (inactive); in [18], > 100 µM (inactive); in assay [19], > 100 µM (inactive). Further, in assay [20], the GI50 is > 100 µM (inactive).

In the case of `O=c1c2c(sc3ccccc13)NCN(CCc1ccccc1)C2`, the GI50 in [1] is 42.2 µM (inactive); in assay [2] it was 33.5 µM (inactive); in [3], 19.9 µM (inactive); in assay [4], 34.6 µM (inactive); in [5] it was 32 µM (inactive); in assay [6], 27.9 µM (inactive). In addition, the GI50 in assay [7] is 55.3 µM (inactive); in [8], 28.7 µM (inactive); in assay [9], 33.7 µM (inactive); in [10], 36.8 µM (inactive); in [11] it was 20.7 µM (inactive); in [12] it was 73.3 µM (inactive). The GI50 in assay [14] is 36.8 µM (inactive); in [15], 34.2 µM (inactive); in assay [16] it was 39.3 µM (inactive); in assay [17] it was 49 µM (inactive); in assay [18] it was 27 µM (inactive); in [19], 23.8 µM (inactive). In addition, in [20], the GI50 was 41.8 µM (inactive).

Take `Cc1cc(N2CCN(C)CC2)n2nc(-c3ccc(Cl)cc3)nc2n1`: the GI50 in assay [1] was 17.7 µM (inactive); in [2], 77.6 µM (inactive); in assay [3], 56.5 µM (inactive); in assay [4] it was > 100 µM (inactive); in [5], > 100 µM (inactive); in assay [6], > 100 µM (inactive). Besides, the GI50 in assay [7] is 75 µM (inactive); in [8] it was > 100 µM (inactive); in assay [10], > 100 µM (inactive); in assay [11], 90.6 µM (inactive); in [12], > 100 µM (inactive); in assay [13], over 100 µM. For the same molecule, the GI50 in assay [14] is > 100 µM (inactive); in assay [15], 75.3 µM (inactive); in assay [16], > 100 µM (inactive); in assay [17], > 100 µM (inactive); in assay [18], > 100 µM (inactive); in assay [19], 74.8 µM (inactive). Also, the GI50 in [20] is 54.6 µM (inactive).

Take `COC(=O)c1ccccc1C1CN=NC12Cc1ccc3ccccc3c1C2=O` (stereo not given): the GI50 in assay [1] was 36.5 µM (inactive); in [2], > 100 µM (inactive); in assay [3], 13.4 µM (inactive); in assay [5] it was > 100 µM (inactive); in assay [6] it was 52.5 µM (inactive); in assay [7] it was 73.8 µM (inactive). In addition, the GI50 was > 100 µM (inactive) in assay [8]; > 100 µM (inactive) in assay [9]; > 100 µM (inactive) in assay [10]; > 100 µM (inactive) in [11]; 17.7 µM (inactive) in [12]; over 100 µM in assay [13]. Moreover, the GI50 in assay [14] was > 100 µM (inactive); in assay [15], > 100 µM (inactive); in [16] it was > 100 µM (inactive); in assay [17] it was 85.3 µM (inactive); in assay [18], > 100 µM (inactive); in assay [19], > 100 µM (inactive). In [20], the GI50 is > 100 µM (inactive).
